Legend:
Format in all cases: in vivo
[1] = tested on: Alopecurus myosuroides (ALOMY); assay: Example B pre-emergence herbicidal activity, glasshouse pot test; conditions: 312 h, rate 1000 g/ha, evaluated after 13 days, read-out: herbicidal damage ALOMY (100=total damage to plant; 0=no damage to plant)
Experimental: (§1) Seeds of a variety of test species were sown in standard soil in pots. After cultivation for one day (pre-emergence) or after 8 days cultivation (post-emergence) under controlled conditions in a glasshouse (at 24/16° C., day/night; 14 hours light; 65% humidity), the plants were sprayed with an aqueous spray solution derived from the formulation of the technical active ingredient in acetone/water (50:50) solution containing 0.5% Tween 20 (polyoxyethelyene sorbitan monolaurate, CAS RN 9005-64-5). The test plants were then grown in a glasshouse under controlled conditions in a glasshouse (at 24/16° C., day/night; 14 hours light; 65% humidity) and watered twice daily. After 13 days for pre and post-emergence, the test was evaluated (100=total damage to plant; 0=no damage to plant). Alopecurus myosuroides (ALOMY), Avena fatua (AVEFA), Setaria faberi (SETFA), Echinochloa crus-galli (ECHCG), Solanum nigrum (SOLNI) and Amaranthus retroflexus (AMARE) Pre-Emergence Activity

[2] = tested on: Amaranthus retroflexus (AMARE); assay: as above; conditions: 312 h, rate 1000 g/ha, evaluated after 13 days, read-out: herbicidal damage AMARE (100=total damage to plant; 0=no damage to plant)
Experimental: as §1

Avena fatua (AVEFA) [3] = assay: as above; conditions: 312 h, rate 1000 g/ha, evaluated after 13 days, read-out: herbicidal damage AVEFA (100=total damage to plant; 0=no damage to plant)
Experimental: as §1

[4] = tested on: Echinochloa crus-galli (ECHCG); assay: as above; conditions: 312 h, rate 1000 g/ha, evaluated after 13 days, read-out: herbicidal damage ECHCG (100=total damage to plant; 0=no damage to plant)
Experimental: as §1

Setaria faberi (SETFA) [5] = assay: as above; conditions: 312 h, rate 1000 g/ha, evaluated after 13 days, read-out: herbicidal damage SETFA (100=total damage to plant; 0=no damage to plant)
Experimental: as §1

Solanum nigrum (SOLNI) [6] = assay: as above; conditions: 312 h, rate 1000 g/ha, evaluated after 13 days, read-out: herbicidal damage SOLNI (100=total damage to plant; 0=no damage to plant)
Experimental: as §1

[7] = tested on: Alopecurus myosuroides (ALOMY); assay: Example B post-emergence herbicidal activity, glasshouse pot test; conditions: 312 h, rate 1000 g/ha, evaluated after 13 days, read-out: herbicidal damage ALOMY (100=total damage to plant; 0=no damage to plant)
Experimental: as §1, with “Post-Emergence” for “Pre-Emergence”

[8] = tested on: Amaranthus retroflexus (AMARE); assay: as above; conditions: 312 h, rate 1000 g/ha, evaluated after 13 days, read-out: herbicidal damage AMARE (100=total damage to plant; 0=no damage to plant)
Experimental: as §1, with “Post-Emergence” for “Pre-Emergence”

Avena fatua (AVEFA) [9] = assay: as above; conditions: 312 h, rate 1000 g/ha, evaluated after 13 days, read-out: herbicidal damage AVEFA (100=total damage to plant; 0=no damage to plant)
Experimental: as §1, with “Post-Emergence” for “Pre-Emergence”

[10] = tested on: Echinochloa crus-galli (ECHCG); assay: as above; conditions: 312 h, rate 1000 g/ha, evaluated after 13 days, read-out: herbicidal damage ECHCG (100=total damage to plant; 0=no damage to plant)
Experimental: as §1, with “Post-Emergence” for “Pre-Emergence”

Setaria faberi (SETFA) [11] = assay: as above; conditions: 312 h, rate 1000 g/ha, evaluated after 13 days, read-out: herbicidal damage SETFA (100=total damage to plant; 0=no damage to plant)
Experimental: as §1, with “Post-Emergence” for “Pre-Emergence”

Solanum nigrum (SOLNI) [12] = assay: as above; conditions: 312 h, rate 1000 g/ha, evaluated after 13 days, read-out: herbicidal damage SOLNI (100=total damage to plant; 0=no damage to plant)
Experimental: as §1, with “Post-Emergence” for “Pre-Emergence”

| Compound | pest or weed control at 1000 g/ha [1] [%] | pest or weed control at 1000 g/ha [2] [%] | pest or weed control at 1000 g/ha (Avena fatua (AVEFA) [3]) [%] | pest or weed control at 1000 g/ha [4] [%] | pest or weed control at 1000 g/ha (Setaria faberi (SETFA) [5]) [%] | pest or weed control at 1000 g/ha (Solanum nigrum (SOLNI) [6]) [%] | pest or weed control at 1000 g/ha [7] [%] | pest or weed control at 1000 g/ha [8] [%] | pest or weed control at 1000 g/ha (Avena fatua (AVEFA) [9]) [%] | pest or weed control at 1000 g/ha [10] [%] | pest or weed control at 1000 g/ha (Setaria faberi (SETFA) [11]) [%] | pest or weed control at 1000 g/ha (Solanum nigrum (SOLNI) [12]) [%] |
| --- | --- | --- | --- | --- | --- | --- | --- | --- | --- | --- | --- | --- |
| Cc1ccc(-c2cccnc2OCC2CC2)cc1C1=C(O)CC(CC2CCOCC2)CC1=O (stereo not drawn) [Compound A-27] | 0 | 0 | 0 | 0 | 0 | 0 | 10 | 0 | 0 | 30 | 60 | 0 |
| Cc1ccc(-c2ccc(OC(F)(F)F)cc2)cc1C1=C(O)CC(CC2CCOCC2)CC1=O (stereo not drawn) [Compound A-29] | 20 | 50 | 0 | 20 | 0 | 30 | 10 | 70 | 0 | 60 | 60 | 20 |
| CCc1cc(-c2ccc(C)cc2)cc(CC)c1C1=C(O)CC(CC2CCOCC2)CC1=O (stereo not drawn) [Compound A-33] | 50 | 0 | 60 | 90 | 100 | 0 | 30 | 60 | 70 | 100 | 80 | 70 |
| CCc1cc(-c2ccc(Cl)cc2)cc(CC)c1C1=C(O)CC(CC2CCOCC2)CC1=O (stereo not drawn) [Compound A-34] | 50 | 0 | 60 | 100 | 90 | 0 | 50 | 20 | 100 | 100 | 90 | 0 |
| Cc1ccc(-c2cc(C)c(C3=C(O)CC(CC4CCOCC4)CC3=O)c(C)c2)cc1 (stereo not drawn) [Compound A-36] | 60 | 0 | 40 | 90 | 100 | 0 | 70 | 0 | 70 | 100 | 100 | 50 |
| Cc1cc(-c2ccc(Cl)cc2)cc(C)c1C1=C(O)CC(CC2CCOCC2)CC1=O (stereo not drawn) [Compound A-37] | 80 | 20 | 90 | 100 | 100 | 20 | 90 | 40 | 100 | 100 | 100 | 70 |
| Cc1cc(-c2ccc(C(F)(F)F)cc2)cc(C)c1C1=C(O)CC(CC2CCOCC2)CC1=O (stereo not drawn) [Compound A-38] | 30 | 0 | 20 | 100 | 100 | 0 | 30 | 0 | 40 | 90 | 100 | 20 |
| Cc1ccc(-c2ccc(F)cc2)cc1C1=C(O)CC(CC2CCOCC2)CC1=O (stereo not drawn) [Compound A-39] | 0 | 0 | 0 | 0 | 0 | 0 | 60 | 0 | 80 | 80 | 90 | 0 |
| Cc1ccc(-c2ccc(F)c(F)c2)cc1C1=C(O)CC(CC2CCOCC2)CC1=O (stereo not drawn) [Compound A-40] | 0 | 0 | 0 | 30 | 0 | 0 | 70 | 30 | 70 | 100 | 90 | 0 |
| Cc1cc(-c2ccccc2)cc(C)c1C1=C(O)CC(CC2CCOCC2)CC1=O (stereo not drawn) [Compound A-41] | 90 | 0 | 80 | 100 | 100 | 0 | 90 | 40 | 70 | 100 | 100 | 40 |
| CCc1ccc(-c2ccc(Cl)cc2)cc1C1=C(O)CC(CC2OCCO2)CC1=O (stereo not drawn) [Compound A-45] | 60 | 0 | 70 | 100 | 90 | 100 | 100 | 0 | 100 | 100 | 100 | 10 |
| Cc1ccc(-c2ccc(Cl)cc2)cc1C1=C(O)CC(CC2OCCO2)CC1=O (stereo not drawn) [Compound A-46, 2-(4′-Chloro-4-methylbiphenyl-3-yl)-5-[1,3]dioxolan-2-ylmethylcyclohexane-1,3-dione] | 20 | 0 | 40 | 40 | 90 | 0 | 90 | 20 | 80 | 100 | 90 | 20 |
| Cc1cc(-c2ccc(C)c(C3=C(O)CC(CC4CCOCC4)CC3=O)c2)ccc1F (stereo not drawn) [Compound A-48] | 0 | 0 | 0 | 20 | 20 | 0 | 60 | 10 | 60 | 80 | 80 | 0 |

— patent US8735322B2, “Herbicides” (Syngenta Limited, priority 2008, dated 2014)
